Measured values: US20150164762A1, “USE OF ETHANOLAMINE PHOSPHATE” (priority 2012, published 2015)

Test system: BEAS-2B
Experiment: Comprehensive gene expression analysis with Whole Human Genome DNA microarray after EP treatment
Assay type: cell-based
Experimental: Cells of the established normal human airway epithelial cell line BEAS-2B were used in the experiment. These cells were expansively cultured in 10% FBS RPMI-1640, and seeded at a density of 1×10^5/cm^2 on a 24-well plate. After 24 hours 0.1% FBS RPMI-1640 was substituted, and EP was administered to a final concentration of 0 or 1 mM (n=4). After 24 hours, the cells were used as the DNA microarray samples. RNA was extracted using a QIAGEN RNeasy Mini Kit. The DNA microarray test was performed using a Whole Human Genome DNA microarray 4×44K (Agilent), and the necessary labeling reagents and the like for the DNA microarray test were all from Agilent. The DNA microarray test data were analyzed statistically with GeneSpring (Agilent) dedicated analysis software, and gene function analysis (Gene Ontology (GO) analysis) was performed based on differential expression. The purpose of the GO analysis is to determine stochastically the degree to which gene sets with statistically significant differential expression correspond to known functional classification gene sets. […] The p-value is calculated according to the following formula.

NCCOP(=O)(O)O [EP, Ethanolamine phosphate]
expression of cytokines (1 mM EP, 24 h): reduced expression of many cytokines | R*: Ratio to control (AEN, probe A_23_P206077): 0.420 times | log2 [ratio] (AEN, probe A_23_P206077): −1.253 | R*: Ratio to control (AGGF1, probe A_23_P250554): 1.523 times | log2 [ratio] (AGGF1, probe A_23_P250554): 0.607 | R*: Ratio to control (AIFM2, probe A_32_P75094): 0.399 times | log2 [ratio] (AIFM2, probe A_32_P75094): −1.327 | R*: Ratio to control (AIFM3, probe A_23_P258194): 0.590 times | log2 [ratio] (AIFM3, probe A_23_P258194): −0.761 | R*: Ratio to control (ANXA2, probe A_23_P146644): 1.673 times | log2 [ratio] (ANXA2, probe A_23_P146644): 0.742 | R*: Ratio to control (ANXA2, probe A_32_P94798): 1.614 times | log2 [ratio] (ANXA2, probe A_32_P94798): 0.691 | R*: Ratio to control (APAF1, probe A_23_P36611): 0.420 times | log2 [ratio] (APAF1, probe A_23_P36611): −1.253 | R*: Ratio to control (APPL1, probe A_24_P302833): 1.723 times | log2 [ratio] (APPL1, probe A_24_P302833): 0.785 | R*: Ratio to control (ARHGAP24, probe A_23_P110151): 1.670 times | log2 [ratio] (ARHGAP24, probe A_23_P110151): 0.740 | R*: Ratio to control (ARHGAP24, probe A_24_P388659): 1.745 times | log2 [ratio] (ARHGAP24, probe A_24_P388659): 0.803 | R*: Ratio to control (ARHGEF6, probe A_23_P85024): 0.270 times | log2 [ratio] (ARHGEF6, probe A_23_P85024): −1.889 | R*: Ratio to control (BAK1, probe A_23_P145357): 0.402 times | log2 [ratio] (BAK1, probe A_23_P145357): −1.313 | R*: Ratio to control (BAX, probe A_23_P208706): 0.453 times | log2 [ratio] (BAX, probe A_23_P208706): −1.143 | R*: Ratio to control (BAX, probe A_23_P346311): 0.511 times | log2 [ratio] (BAX, probe A_23_P346311): −0.969 | R*: Ratio to control (BBC3, probe A_23_P382775): 0.315 times | log2 [ratio] (BBC3, probe A_23_P382775): −1.666 | R*: Ratio to control (BBC3, probe A_24_P305312): 0.366 times | log2 [ratio] (BBC3, probe A_24_P305312): −1.452 | R*: Ratio to control (BCAT1, probe A_24_P935986): 1.721 times | log2 [ratio] (BCAT1, probe A_24_P935986): 0.783 | R*: Ratio to control (BCL2L11, probe A_24_P122921): 0.636 times | log2 [ratio] (BCL2L11, probe A_24_P122921): −0.652 | R*: Ratio to control (BCL2L14, probe A_23_P128050): 0.594 times | log2 [ratio] (BCL2L14, probe A_23_P128050): −0.751 | R*: Ratio to control (BCL10, probe A_23_P115286): 0.542 times | log2 [ratio] (BCL10, probe A_23_P115286): −0.883 | R*: Ratio to control (BCL10, probe A_24_P19983): 0.571 times | log2 [ratio] (BCL10, probe A_24_P19983): −0.810 | R*: Ratio to control (BIK, probe A_23_P404867): 0.298 times | log2 [ratio] (BIK, probe A_23_P404867): −1.748 | R*: Ratio to control (BLOC1S2, probe A_23_P23960): 0.396 times | log2 [ratio] (BLOC1S2, probe A_23_P23960): −1.336 | R*: Ratio to control (BLOC1S2, probe A_24_P295543): 0.384 times | log2 [ratio] (BLOC1S2, probe A_24_P295543): −1.381 | R*: Ratio to control (BMP4, probe A_23_P54144): 1.820 times | log2 [ratio] (BMP4, probe A_23_P54144): 0.864 | R*: Ratio to control (BNIP3, probe A_23_P138635): 0.374 times | log2 [ratio] (BNIP3, probe A_23_P138635): −1.418 | R*: Ratio to control (BNIP3L, probe A_23_P134925): 0.633 times | log2 [ratio] (BNIP3L, probe A_23_P134925): −0.661 | R*: Ratio to control (BTG1, probe A_23_P87560): 0.416 times | log2 [ratio] (BTG1, probe A_23_P87560): −1.265 | R*: Ratio to control (C16orf5, probe A_23_P15247): 0.519 times | log2 [ratio] (C16orf5, probe A_23_P15247): −0.947 | R*: Ratio to control (CASP1, probe A_23_P202978): 0.641 times | log2 [ratio] (CASP1, probe A_23_P202978): −0.642 | R*: Ratio to control (CASP10, probe A_23_P209408): 0.552 times | log2 [ratio] (CASP10, probe A_23_P209408): −0.857 | R*: Ratio to control (CASP10, probe A_24_P139993): 0.609 times | log2 [ratio] (CASP10, probe A_24_P139993): −0.716 | R*: Ratio to control (CCBE1, probe A_23_P55544): 1.755 times | log2 [ratio] (CCBE1, probe A_23_P55544): 0.811 | R*: Ratio to control (CCBE1, probe A_32_P171043): 1.890 times | log2 [ratio] (CCBE1, probe A_32_P171043): 0.918 | R*: Ratio to control (CDKN1A, probe A_23_P59210): 0.439 times | log2 [ratio] (CDKN1A, probe A_23_P59210): −1.187 | R*: Ratio to control (CDKN1A, probe A_24_P89457): 0.294 times | log2 [ratio] (CDKN1A, probe A_24_P89457): −1.768 | R*: Ratio to control (CEBPB, probe A_23_P143242): 0.617 times | log2 [ratio] (CEBPB, probe A_23_P143242): −0.697 | R*: Ratio to control (CEBPB, probe A_23_P411296): 0.383 times | log2 [ratio] (CEBPB, probe A_23_P411296): −1.385 | R*: Ratio to control (CIDEC, probe A_23_P92025): 0.593 times | log2 [ratio] (CIDEC, probe A_23_P92025): −0.754 | R*: Ratio to control (CKLF, probe A_23_P118061): 1.501 times | log2 [ratio] (CKLF, probe A_23_P118061): 0.586 | R*: Ratio to control (CKLF, probe A_23_P206396): 1.601 times | log2 [ratio] (CKLF, probe A_23_P206396): 0.679 | R*: Ratio to control (CKLF, probe A_24_P215804): 1.551 times | log2 [ratio] (CKLF, probe A_24_P215804): 0.633 | R*: Ratio to control (CKS2, probe A_23_P71727): 1.510 times | log2 [ratio] (CKS2, probe A_23_P71727): 0.595 | R*: Ratio to control (COL8A1, probe A_23_P69030): 1.999 times | log2 [ratio] (COL8A1, probe A_23_P69030): 0.999 | R*: Ratio to control (COL8A1, probe A_23_P211762): 1.643 times | log2 [ratio] (COL8A1, probe A_23_P211762): 0.716 | R*: Ratio to control (COL8A1, probe A_24_P139152): 1.703 times | log2 [ratio] (COL8A1, probe A_24_P139152): 0.768 | R*: Ratio to control (DDIT3, probe A_23_P21134): 0.210 times | log2 [ratio] (DDIT3, probe A_23_P21134): −2.249 | R*: Ratio to control (FGF9, probe A_23_P105803): 1.606 times | log2 [ratio] (FGF9, probe A_23_P105803): 0.684 | R*: Ratio to control (GLI2, probe A_23_P500034): 2.060 times | log2 [ratio] (GLI2, probe A_23_P500034): 1.043 | R*: Ratio to control (HAND2, probe A_23_P373521): 1.971 times | log2 [ratio] (HAND2, probe A_23_P373521): 0.979 | R*: Ratio to control (IFI16, probe A_23_P217866): 0.585 times | log2 [ratio] (IFI16, probe A_23_P217866): −0.773 | R*: Ratio to control (IFNG, probe A_23_P151294): 0.611 times | log2 [ratio] (IFNG, probe A_23_P151294): −0.710 | R*: Ratio to control (IKBIP, probe A_23_P53467): 0.626 times | log2 [ratio] (IKBIP, probe A_23_P53467): −0.675 | R*: Ratio to control (IKBIP, probe A_23_P303210): 0.468 times | log2 [ratio] (IKBIP, probe A_23_P303210): −1.095 | R*: Ratio to control (IL1A, probe A_23_P72096): 0.216 times | log2 [ratio] (IL1A, probe A_23_P72096): −2.211 | R*: Ratio to control (KNG1, probe A_32_P230808): 0.358 times | log2 [ratio] (KNG1, probe A_32_P230808): −1.484 | R*: Ratio to control (LEPR, probe A_24_P231104): 1.659 times | log2 [ratio] (LEPR, probe A_24_P231104): 0.730 | R*: Ratio to control (LOX, probe A_23_P122216): 1.637 times | log2 [ratio] (LOX, probe A_23_P122216): 0.711 | R*: Ratio to control (MAP3K10, probe A_24_P284523): 0.570 times | log2 [ratio] (MAP3K10, probe A_24_P284523): −0.810 | R*: Ratio to control (MAPRE2, probe A_23_P89835): 1.538 times | log2 [ratio] (MAPRE2, probe A_23_P89835): 0.621 | R*: Ratio to control (MAPRE2, probe A_24_P193911): 1.666 times | log2 [ratio] (MAPRE2, probe A_24_P193911): 0.736 | R*: Ratio to control (MMP2, probe A_23_P163787): 1.578 times | log2 [ratio] (MMP2, probe A_23_P163787): 0.658 | R*: Ratio to control (MVC, probe A_24_P38363): 1.686 times | log2 [ratio] (MVC, probe A_24_P38363): 0.754 | R*: Ratio to control (NLRP1, probe A_23_P89550): 0.483 times | log2 [ratio] (NLRP1, probe A_23_P89550): −1.048 | R*: Ratio to control (NLRP1, probe A_24_P83615): 0.558 times | log2 [ratio] (NLRP1, probe A_24_P83615): −0.841 | R*: Ratio to control (NR2F2, probe A_23_P88589): 1.662 times | log2 [ratio] (NR2F2, probe A_23_P88589): 0.733 | R*: Ratio to control (NR2F2, probe A_24_P313354): 1.746 times | log2 [ratio] (NR2F2, probe A_24_P313354): 0.804 | R*: Ratio to control (NR4A1, probe A_23_P128230): 0.302 times | log2 [ratio] (NR4A1, probe A_23_P128230): −1.727 | R*: Ratio to control (NRP1, probe A_24_P135322): 1.664 times | log2 [ratio] (NRP1, probe A_24_P135322): 0.735 | R*: Ratio to control (NRP1, probe A_24_P928052): 1.990 times | log2 [ratio] (NRP1, probe A_24_P928052): 0.993 | R*: Ratio to control (NTF3, probe A_23_P360797): 0.492 times | log2 [ratio] (NTF3, probe A_23_P360797): −1.024 | R*: Ratio to control (NTRK1, probe A_23_P34804): 0.261 times | log2 [ratio] (NTRK1, probe A_23_P34804): −1.936 | R*: Ratio to control (OBSCN, probe A_24_P273157): 0.654 times | log2 [ratio] (OBSCN, probe A_24_P273157): −0.613
